Laboratory results: PubChem BioAssay (NCI)
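A five-concentration, 48-hour dose response in 96-well plates underlies each endpoint, interpolated linearly between surrounding concentrations. TGI marks complete inhibition of growth.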

Legend:
Assay in all cases: DTP human tumour cell line panel, 48 h
OVCAR-3 ovarian = test system: OVCAR-3 ovarian
SNB-19 CNS = test system: SNB-19 CNS
OVCAR-4 ovarian = test system: OVCAR-4 ovarian
HOP-62 NSCLC = test system: HOP-62 NSCLC
UO-31 renal = test system: UO-31 renal
HCT-15 colon = test system: HCT-15 colon
U251 CNS = test system: U251 CNS
TK-10 renal = test system: TK-10 renal
COLO 205 colon = test system: COLO 205 colon
SNB-75 CNS = test system: SNB-75 CNS
OVCAR-8 ovarian = test system: OVCAR-8 ovarian
MDA-MB-435 = test system: MDA-MB-435
CCRF-CEM leukemia = test system: CCRF-CEM leukemia
K-562 leukemia = test system: K-562 leukemia
OVCAR-5 ovarian = test system: OVCAR-5 ovarian
A549 NSCLC = test system: A549 NSCLC
NCI-H23 lung = test system: NCI-H23 lung
HT29 colon = test system: HT29 colon
NCI/ADR-RES ovarian = test system: NCI/ADR-RES ovarian
M14 melanoma = test system: M14 melanoma
NCI-H226 lung = test system: NCI-H226 lung
SF-539 CNS = test system: SF-539 CNS
SR leukemia = test system: SR leukemia
786-0 renal = test system: 786-0 renal
NCI-H460 lung = test system: NCI-H460 lung
T-47D breast = test system: T-47D breast
SK-MEL-5 melanoma = test system: SK-MEL-5 melanoma
IGROV1 ovarian = test system: IGROV1 ovarian
MOLT-4 leukemia = test system: MOLT-4 leukemia
EKVX NSCLC = test system: EKVX NSCLC
PC-3 prostate = test system: PC-3 prostate
HL-60(TB) leukemia = test system: HL-60(TB) leukemia
ACHN renal = test system: ACHN renal
SN12C renal = test system: SN12C renal
MALME-3M melanoma = test system: MALME-3M melanoma
HCT-116 colon = test system: HCT-116 colon
MDA-MB-231 breast = test system: MDA-MB-231 breast
HOP-92 NSCLC = test system: HOP-92 NSCLC
MDA-N = test system: MDA-N
KM12 colon = test system: KM12 colon
HS 578T breast = test system: HS 578T breast
UACC-257 melanoma = test system: UACC-257 melanoma
SK-OV-3 ovarian = test system: SK-OV-3 ovarian
SF-295 CNS = test system: SF-295 CNS
SF-268 CNS = test system: SF-268 CNS
NCI-H522 lung = test system: NCI-H522 lung
RPMI-8226 leukemia = test system: RPMI-8226 leukemia
SW-620 colon = test system: SW-620 colon
MCF7 breast = test system: MCF7 breast
UACC-62 melanoma = test system: UACC-62 melanoma
SK-MEL-28 melanoma = test system: SK-MEL-28 melanoma
RXF 393 renal = test system: RXF 393 renal
HCC-2998 colon = test system: HCC-2998 colon
DU-145 prostate = test system: DU-145 prostate
BT-549 breast = test system: BT-549 breast
SK-MEL-2 melanoma = test system: SK-MEL-2 melanoma
CAKI-1 renal = test system: CAKI-1 renal

Measured: TGI

Cn1cc(NC(=O)Nc2cc(C(=O)Nc3cc(C(=O)Nc4ccc(S(=O)(=O)O)c5cc(S(=O)(=O)O)ccc45)n(C)c3)n(C)c2)cc1C(=O)Nc1cc(C(=O)Nc2ccc(S(=O)(=O)O)c3cc(S(=O)(=O)O)ccc23)n(C)c1
not listed: SK-MEL-2 melanoma | CAKI-1 renal
> 100 µM: all other assays above

COC(CNC(=O)C(C)NC(=O)/C=C/c1ccccc1)OC (configuration not stated)
not listed: OVCAR-3 ovarian | OVCAR-4 ovarian | HOP-62 NSCLC | SK-MEL-28 melanoma | HCC-2998 colon
> 100 µM: all other assays above
